Tests used:
Type in all cases: cell-based
[1] = tested on: human peripheral blood mononuclear cells (PBMCs); test: Cytokine production by human PBMCs stimulated with TLR7/TLR8 RNA PN (ELISA); conditions: 5×10^5 human PBMCs, 20, 100 or 200 μg/mL, 24 hours
Description: (§1) PN-based TLR8 ligand stabilized immunomodulatory RNA (5′-M2[…]-/glycerol/-[…]2-5′ (M2=C6-linker); SEQ ID NO:3) and PN-based TLR7 ligand stabilized immunomodulatory RNA (5′-[…]-/glycerol/-[…]-5′ (R=7-deazaguanosine); SEQ ID NO:2) were previously identified (Lan et al., PNAS 104:13750-13755, 2007). The effect of these TLR7— and TLR8-stimulating RNA PN was evaluated by measuring production of IL-6 and TNF-α in human peripheral blood mononuclear cells (PBMCs) and human monocytes (FIG. 2). 5×10^5 PBMCs or 2×10^5 monocytes from healthy human donors were stimulated with 20 μg/mL, 100 μg/mL, or 200 μg/mL of either TLR8 agonist or TLR7 agonist as indicated in FIG. 2. Twenty-four hours later supernatants were assessed for presence of inflammatory cytokines IL-6 and TNF-α by standard ELISA procedure.

human monocytes = test: Cytokine production by human monocytes stimulated with TLR7/TLR8 RNA PN (ELISA); conditions: 2×10^5 human monocytes, 20, 100 or 200 μg/mL, 24 hours, compared with PBMCs
Description: as §1

human pDCs = test: Cytokine production by human pDCs stimulated with TLR7/TLR8 RNA PN (ELISA); conditions: 1×10^5 human pDCs (negative for TLR8), 100 μg/mL, 24 hours
Description: The effect of TLR7 and TLR8-stimulating RNA PN were also evaluated in human pDCs by measuring production of IL-6, TNF-α, and IFN-α. […] 1×10^5 pDCs from healthy human donors were stimulated with 100 μg/mL of either TLR8 agonist or TLR7 agonist (Lan et al., PNAS 104:13750-13755, 2007) or medium alone as indicated in FIG. 3. Twenty-four hours later supernatants were assessed for presence of inflammatory cytokines IL-6, TNF-α and IFN-α by standard ELISA procedure.

Mouse splenocytes = test: IL-12 and TNF-α production by mouse splenocytes (ELISA); conditions: 5×10^5 cells from 129 wt and TLR7KO mice, 100 μg/ml
Description: (§2) The effect of TLR7 and TLR8-stimulating RNA PNs was further evaluated in mouse cells by measuring IL-12 and TNF-α production (FIG. 4). Mouse splenocytes and PBMCs were prepared from 129 wt mice and TLR7KO mice, and 5×10^5 cells were stimulated with 100 μg/ml of either TLR8 or TLR7 agonist as indicated in FIG. 4. IL-12 and TNF-α were measured by ELISA using standard techniques.

Mouse PBMCs = test: IL-12 and TNF-α production by mouse PBMCs (ELISA); conditions: 5×10^5 cells from 129 wt and TLR7KO mice, 100 μg/ml
Description: as §2

[2] = target: T1, human TLR8 expressed from the transgene in TLR8TGCL8 mice (Homo sapiens, UniProt Q9NR97); test: Cytokine production by blood cells from TLR8TGCL8 transgenic mice (ELISA); conditions: 5×10^5 blood cells from TLR8TGCL8 mice vs C57BL/6 WT, 200 or 100 μg/mL, 24 hours
T1 construct: the human BAC carrying TLR8 gene was obtained from the RPCIB-753 BAC library; expressed in transfected cells; host or cells: Blood cells, bone marrow cells and PBMC of hTLR8 transgenic mice, and the whole animals; The mice came from C57BL/6NTac ES cells transfected with the BAC: the Clone 8 germline line and chimeras
T1 sequence (Q9NR97 27-1041): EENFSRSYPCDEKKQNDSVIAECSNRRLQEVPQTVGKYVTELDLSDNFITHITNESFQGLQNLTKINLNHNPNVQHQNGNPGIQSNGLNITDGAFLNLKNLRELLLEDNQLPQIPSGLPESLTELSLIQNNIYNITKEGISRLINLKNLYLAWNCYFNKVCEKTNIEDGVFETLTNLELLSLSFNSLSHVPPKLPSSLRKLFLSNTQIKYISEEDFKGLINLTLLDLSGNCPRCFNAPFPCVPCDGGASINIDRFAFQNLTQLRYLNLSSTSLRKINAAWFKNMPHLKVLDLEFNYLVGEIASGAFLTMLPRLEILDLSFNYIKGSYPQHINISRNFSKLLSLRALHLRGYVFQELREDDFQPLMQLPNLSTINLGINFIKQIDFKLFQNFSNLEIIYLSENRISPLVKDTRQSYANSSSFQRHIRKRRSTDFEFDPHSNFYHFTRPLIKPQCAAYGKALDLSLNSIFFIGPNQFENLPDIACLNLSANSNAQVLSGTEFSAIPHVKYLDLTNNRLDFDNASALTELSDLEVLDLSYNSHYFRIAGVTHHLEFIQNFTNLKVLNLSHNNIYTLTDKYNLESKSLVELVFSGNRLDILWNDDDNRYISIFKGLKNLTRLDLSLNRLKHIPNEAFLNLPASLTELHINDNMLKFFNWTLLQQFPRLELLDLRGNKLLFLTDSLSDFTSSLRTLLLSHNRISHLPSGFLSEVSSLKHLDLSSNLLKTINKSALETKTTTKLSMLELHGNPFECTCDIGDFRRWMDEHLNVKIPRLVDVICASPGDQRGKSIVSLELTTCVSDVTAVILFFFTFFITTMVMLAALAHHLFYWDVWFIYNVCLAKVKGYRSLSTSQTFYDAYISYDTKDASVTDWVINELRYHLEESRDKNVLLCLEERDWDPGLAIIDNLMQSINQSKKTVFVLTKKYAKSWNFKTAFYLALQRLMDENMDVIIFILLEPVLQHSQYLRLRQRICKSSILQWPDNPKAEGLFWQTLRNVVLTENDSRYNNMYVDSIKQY
Text: (§3) PN-based TLR8 ligand stabilized immunomodulatory RNA (5′-M2[…]-/glycerol/-[…]2-5′ (M2=C6-linker); SEQ ID NO:3) and PN-based TLR7 ligand stabilized immunomodulatory RNA (5′-[…]-/glycerol/-[…]-5′ (R=7-deazaguanosine); SEQ ID NO:2) were previously identified (Lan et al., PNAS 104:13750-13755, 2007). To confirm that human TLR8 expressed from the transgene in TLR8TGCL8 mice is functional and sensitive to stimulation, the effect of TLR8-stimulating RNA PN (SEQ ID NO:3) on cytokine production was assessed. 5×10^5 blood cells from TLR8TGCL8 transgenic mice or C57BL/6 WT animals were stimulated with TLR8 agonist at different concentrations as shown in FIG. 13. 24 hours later supernatants were harvested and assayed for mouse IL-12, TNF-α and IL-6 using standard ELISA procedures. In addition, 5×10^5 bone marrow cells from TLR8TGCL8 transgenic mice or C57BL/6 WT animals were stimulated with TLR8 agonist (SEQ ID NO:3) at different concentrations as shown in FIG. 14. Mouse TNF-α and IL-6 production was assayed in supernatants harvested after 24 hours.

[3] = target: T1, human TLR8 expressed from the transgene in TLR8TGCL8 mice; test: Cytokine production by bone marrow cells from TLR8TGCL8 transgenic mice (ELISA); conditions: 5×10^5 bone marrow cells from TLR8TGCL8 mice vs C57BL/6 WT, 100 or 50 μg/mL, 24 hours
Text: as §3

Substance	production of IL-6 and TNF-α in PBMCs [1]	production of IL-6 and TNF-α in monocytes (human monocytes)	stimulation of pDCs (IL-6, TNF-α and IFN-α production) (human pDCs)	stimulation of mouse splenocytes (IL-12 and TNF-α production) (Mouse splenocytes)	stimulation of mouse PBMCs (IL-12 and TNF-α production) (Mouse PBMCs)	mouse IL-12, TNF-α and IL-6 production by blood cells [2]	mouse TNF-α and IL-6 production by bone marrow cells [3]
5′-M2UGCUGCUUGUG-/glycerol/-GUGUUCGUCGUM2-5′ (M2=C6-linker) (NUGCUGCUUGUGNGUGUUCGUCGUN; listed as RNA, chemistry not fully specified) [TLR8 agonist, PN-based TLR8 ligand stabilized immunomodulatory RNA, previously identified (Lan et al., PNAS 2007)]	stimulated production	to a lesser extent	did not stimulate	did not stimulate	did not stimulate	Only cells from transgenic animals responded	Only cells from transgenic animals responded
5′-URCURCUUCUR-/glycerol/-RUCUUCRUCRU-5′ (R=7-deazaguanosine) [TLR7 agonist]	stimulated production	to a lesser extent	–	–	–	–	–

Reference: patent publication US9063123B2, “Transgenic mice expressing human toll-like receptor 8” (Dynavax Technologies Corporation, priority 2011, dated 2015)
